This experiment has as its system BDF1 mice, L1210 leukemia sc, survival T/C. Kind of experiment: NCI In Vivo Anticancer Drug Screen. Data for tumor model L1210 Leukemia (subcutaneous) in B6D2F1 (BDF1) mice. The settings on record: higher = longer survival. In short, it runs like this:
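Expressed as T/C: measurement in compound-treated, tumor-bearing mice relative to vehicle-treated control mice, based on survival or tumor size.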

“And” between values parts separate entries of the source, which are not always exact repeats. Identical values can stand only once. Toxic doses and inconclusive results are not listed.

Regarding `O=c1cnn(C2OC(CO)C(O)C2O)c(=O)[nH]1` (configuration not stated), the T/C was 114 % of control (endpoint: median survival time, dose: 37.5 mg/kg/injection, schedule: Q01DX009 (ip), vehicle: water); 118 % of control and 121 % of control (endpoint: median survival time, dose: 75.0 mg/kg/injection, schedule: Q01DX009 (ip), vehicle: water); 120 % of control (endpoint: median survival time, dose: 75.0 mg/kg/injection, schedule: Q01DX009 (sc), vehicle: water); 120 % of control (endpoint: median survival time, dose: 108.0 mg/kg/injection, schedule: Q01DX Z (sc), vehicle: other); 117 % of control and 120 % of control (endpoint: median survival time, dose: 150.0 mg/kg/injection, schedule: Q01DX009 (ip), vehicle: water); 121 % of control and 122 % of control (endpoint: median survival time, dose: 150.0 mg/kg/injection, schedule: Q01DX009 (sc), vehicle: water). The T/C (endpoint: median survival time, dose: 180.0 mg/kg/injection, schedule: Q01DX Z (sc), vehicle: other) was 120 % of control; the T/C (endpoint: median survival time, dose: 300.0 mg/kg/injection, schedule: Q01DX009 (ip), vehicle: water) was 117 % of control and 123 % of control; the T/C (endpoint: median survival time, dose: 300.0 mg/kg/injection, schedule: Q01DX009 (sc), vehicle: water) was 117 % of control and 122 % of control; the T/C (endpoint: median survival time, dose: 300.0 mg/kg/injection, schedule: Q01DX Z (sc), vehicle: other) was 120 % of control; the T/C (endpoint: median survival time, dose: 500.0 mg/kg/injection, schedule: Q01DX Z (sc), vehicle: other) is 120 % of control; the T/C (endpoint: median survival time, dose: 600.0 mg/kg/injection, schedule: Q01DX009 (ip), vehicle: water) was 118 % of control. Moreover, the T/C was 117 % of control (endpoint: median survival time, dose: 600.0 mg/kg/injection, schedule: Q01DX009 (sc), vehicle: water); 110 % of control (endpoint: median survival time, dose: 833.0 mg/kg/injection, schedule: Q01DX Z (sc), vehicle: other); 122 % of control (endpoint: median survival time, dose: 1000.0 mg/kg/injection, schedule: Q01DX Z (sc), vehicle: other); 104 % of control and 117 % of control (endpoint: median survival time, dose: 1200.0 mg/kg/injection, schedule: Q01DX009 (ip), vehicle: water); 114 % of control (endpoint: median survival time, dose: 1200.0 mg/kg/injection, schedule: Q01DX009 (sc), vehicle: water).

In the case of `Cn1c(N)nc2nc[nH]c2c1=S`, the T/C (endpoint: median survival time, dose: 65.0 mg/kg/injection, schedule: Q01DX Z (sc), vehicle: methylcellulose (MC)) was 100 % of control; the T/C (endpoint: median survival time, dose: 108.0 mg/kg/injection, schedule: Q01DX Z (sc), vehicle: methylcellulose (MC)) is 100 % of control; the T/C (endpoint: median survival time, dose: 180.0 mg/kg/injection, schedule: Q01DX Z (sc), vehicle: methylcellulose (MC)) is 100 % of control and 105 % of control; the T/C (endpoint: median survival time, dose: 300.0 mg/kg/injection, schedule: Q01DX Z (sc), vehicle: methylcellulose (MC)) is 100 % of control; the T/C (endpoint: median survival time, dose: 500.0 mg/kg/injection, schedule: Q01DX Z (sc), vehicle: methylcellulose (MC)) is 100 % of control and 105 % of control; the T/C (endpoint: median survival time, dose: 833.0 mg/kg/injection, schedule: Q01DX Z (sc), vehicle: methylcellulose (MC)) was 110 % of control.

`CS(=O)(=O)Nc1ccc(Nc2c3ccccc3nc3cc(N)ccc23)cc1`: the T/C was 103 % of control (endpoint: mean survival time, dose: 1.0 mg/kg/injection, schedule: Q01DX009 (ip), vehicle: saline) and 99 % of control (endpoint: mean survival time, dose: 2.0 mg/kg/injection, schedule: Q01DX009 (ip), vehicle: saline).

Turning to `CCCCC(C)(N)C(=O)O` (configuration not stated), the T/C reads like this: (endpoint: median survival time, dose: 14.0 mg/kg/injection, schedule: Q01DX Z (sc), vehicle: water) 95 % of control; (endpoint: median survival time, dose: 23.0 mg/kg/injection, schedule: Q01DX Z (sc), vehicle: water) 100 % of control; (endpoint: median survival time, dose: 39.0 mg/kg/injection, schedule: Q01DX Z (sc), vehicle: water) 100 % of control; (endpoint: median survival time, dose: 65.0 mg/kg/injection, schedule: Q01DX Z (sc), vehicle: water) 100 % of control; (endpoint: median survival time, dose: 108.0 mg/kg/injection, schedule: Q01DX Z (sc), vehicle: water) 100 % of control; (endpoint: median survival time, dose: 180.0 mg/kg/injection, schedule: Q01DX Z (sc), vehicle: water) 100 % of control. Moreover, where the note is “endpoint: median survival time, dose: 300.0 mg/kg/injection, schedule: Q01DX Z (sc), vehicle: water”, the T/C is 100 % of control.

As for `CCN(CC)P(=O)(N1CC1)N1CC1`, the T/C runs as follows: (endpoint: median survival time, dose: 1.08 mg/kg/injection, schedule: Q01DX Z (sc), vehicle: saline) 100 % of control; (endpoint: median survival time, dose: 1.8 mg/kg/injection, schedule: Q01DX Z (sc), vehicle: saline) 100 % of control; (endpoint: median survival time, dose: 3.0 mg/kg/injection, schedule: Q01DX Z (sc), vehicle: saline) 110 % of control; (endpoint: median survival time, dose: 5.0 mg/kg/injection, schedule: Q01DX Z (sc), vehicle: saline) 115 % of control; (endpoint: median survival time, dose: 8.4 mg/kg/injection, schedule: Q01DX Z (sc), vehicle: saline) 170 % of control and 194 % of control; (endpoint: median survival time, dose: 14.0 mg/kg/injection, schedule: Q01DX Z (sc), vehicle: saline) 150 % of control and 183 % of control. Further, the T/C runs as follows: (endpoint: median survival time, dose: 23.0 mg/kg/injection, schedule: Q01DX Z (sc), vehicle: saline) 155 % of control; (endpoint: median survival time, dose: 39.0 mg/kg/injection, schedule: Q01DX Z (sc), vehicle: saline) 111 % of control; (endpoint: median survival time, dose: 65.0 mg/kg/injection, schedule: Q01DX Z (sc), vehicle: saline) 111 % of control; (endpoint: median survival time, dose: 108.0 mg/kg/injection, schedule: Q01DX Z (sc), vehicle: saline) 100 % of control.
